Data from patent US20130090318A1, “ONCE-A-MONTH METHOD OF CONTRACEPTION” (LABORATOIRE HRA-PHARMA, priority 2010, published 2013).

Test system: women
Assay: Effect of one intake of levonorgestrel within different stages of the menstrual cycle on women pregnancies
Type: in vivo
Conditions: levonorgestrel 1.5 mg single oral tablet, 1,117 women
Procedure: 1,117 women (aged 24.9+/−6.5 years) received levonorgestrel (1.5 mg) in form of a single oral tablet during different stages of their menstrual cycle.
The reference (day 0) is the ovulation. The fertile period extends from five days before the ovulation to one day after the ovulation.

In the case of `C#C[C@]1(O)CC[C@H]2[C@@H]3CCC4=CC(=O)CC[C@@H]4[C@H]3CC[C@@]21CC` [levonorgestrel, D-(−)-ethyl-13β ethynyl-17α hydroxy-17 gonene-4 one-3], the “% pregnancies (failures)” value (menstrual cycle stage <−5 day (day 0 = ovulation)) is reported as 0%, the “% pregnancies (failures)” value (menstrual cycle stage >+1 day (day 0 = ovulation)) is reported as 44% and the “% pregnancies (failures)” value (menstrual cycle stage between −5 and +1 day (fertile period)) is reported as 56%.
